Laboratory results: patent US20210145801A1, “THERAPY FOR PROTEIN MISFOLDING DISEASE” (WREN THERAPEUTICS LIMITED, priority 2018, published 2021)
Entries after “also recorded” stand apart in the source; their conditions may differ.

Columns and labels:
Aβ42 = molecular target: T1, Aβ42 (Homo sapiens, UniProt P05067); test: Aβ42 aggregation kinetics in human CSF; assay type: biochemical; conditions: 66% CSF; 1.25 and 5-fold excess
T1 construct: made in house; host or cells: E. coli BL21 Gold (DE3)
Experimental: For the experiments of Aβ42 aggregation kinetics in human CSF, monomeric solutions of 3 μM Aβ42 were prepared similar to above with the only exception that the buffer was 20 mM Hepes, pH 8 supplemented with 1 mM CaCl2 at 150 mM NaCl. The obtained monomer was diluted with the […] in order to reach 66% final concentration of CSF, in which the effect of CSF is close to maximum. Aβ42 aggregation kinetics were performed in the absence and the presence of 1.25 and 5-fold excess of Netoglitazone.

Aβ40 = molecular target: T2, Aβ40 (Homo sapiens, UniProt P05067); test: Aβ40 aggregation kinetics; assay type: biochemical; conditions: 10 μM Aβ40; 1.25-fold excess
T2 construct: similar kinetics experiments were performed on the 40-residue isoform, Aβ40
T2 sequence (P05067 672-711 limits assumed): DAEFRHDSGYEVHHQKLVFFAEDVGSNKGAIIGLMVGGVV
Experimental: For the experiments monitoring Aβ40 aggregation kinetics, the experiments were performed similarly to those described above for Aβ42 at a concentration of 10 μM of Aβ40 in the absence or presence of 1.25-fold excess of Netoglitazone.

AD worms (GMC101) [1] = test: Automated motility assay (WF-NTP) in AD worms; assay type: in vivo, C. elegans
Experimental: Standard conditions were used for the propagation of C. elegans (S. Brenner, The genetics of Caenorhabditis elegans. Genetics. 77, 71-94 (1974)). Briefly, the animals were synchronized by hypochlorite bleaching, hatched overnight in M9 buffer (3 g/l KH2PO4, 6 g/l Na2HPO4, 5 g/l NaCl, […]), and subsequently cultured at 20° C. on nematode growth medium (NGM) (CaCl2) 1 mM, MgSO4 1 mM, cholesterol 5 μg/mL, PBS Buffer (250 μM KH2PO4, 67.5 μM KCl, 3.425 mM of NaCl, pH 6), Agar 17 g/L, NaCl 3 g/1, casein 7.5 g/l) plates seeded with the E. coli strain OP50. Saturated cultures of OP50 were grown by inoculating 50 ml of LB medium (tryptone 10 g/l, NaCl 10 g/1, yeast extract 5 g/l) with OP50 and incubating the culture for 16 h at 37° C. NGM plates were seeded with bacteria by adding 350 μl of saturated OP50 to each plate and leaving the plates at 20° C. for 2-3 days. On day 3 after synchronisation, the animals were placed on NGM plates containing 5-fluoro-2′deoxy-uridine (FUDR) (75 μM, unless stated otherwise) to inhibit the growth of offspring.
GMC101 dvIs100 [unc-54p::A-beta-1-42::unc-54 3′UTR+mtl-2p::GFP]. mtl-2p::GFP produces constitutive expression of GFP in intestinal cells. unc-54p::A-beta-1-42 expresses full-length human Aβ42 peptide in body wall muscle cells that aggregates in vivo. […]
(§1) All C. elegans populations were cultured at 20° C. and developmentally synchronized from a 4 h egg-lay. At 64-72 h post-egg-lay (time zero), individuals were transferred to FUDR plates, and body movements were assessed over the times indicated. At different ages, the animals were washed off the plates with M9 buffer and spread over an OP-50 unseeded 9 cm plate, after which their movements were recorded at 20 fps using a recently developed microscopic procedure (M. Perni et al., Massively parallel C. elegans tracking provides multi-dimensional fingerprints for phenotypic discovery. J. Neurosci. Methods. 306, 57-67 (2018)) for 1 min. Up to 600 animals were counted in each experiment in duplicate unless stated otherwise. One experiment that is representative of the three or more measured in each series of experiments is shown, and videos were analysed using a custom-made tracking code (M. Perni et al., Massively parallel C. elegans tracking provides multi-dimensional fingerprints for phenotypic discovery. J. Neurosci. Methods. 306, 57-67 (2018)).
In order to screen for the effect of therapeutics in the most robust way, a wide field-of-view nematode-tracking platform (WF-NTP) was used, which enables the simultaneous investigation of multiple phenotypic readouts on large worm populations. The WF-NTP monitors up 5000 animals in parallel, and the phenotypical readout includes multiple parallel parameters.

PD worms (NL5901) = test: Automated motility assay in PD worms; assay type: in vivo, C. elegans; conditions: same concentration range as in AD worms
Experimental: (§2) Standard conditions were used for the propagation of C. elegans (S. Brenner, The genetics of Caenorhabditis elegans. Genetics. 77, 71-94 (1974)). Briefly, the animals were synchronized by hypochlorite bleaching, hatched overnight in M9 buffer (3 g/l KH2PO4, 6 g/l Na2HPO4, 5 g/l NaCl, […]), and subsequently cultured at 20° C. on nematode growth medium (NGM) (CaCl2) 1 mM, MgSO4 1 mM, cholesterol 5 μg/mL, PBS Buffer (250 μM KH2PO4, 67.5 μM KCl, 3.425 mM of NaCl, pH 6), Agar 17 g/L, NaCl 3 g/1, casein 7.5 g/l) plates seeded with the E. coli strain OP50. […]
as §1, with “One experiment that is representative of the three or more measured in each series of experiments is shown, and videos were analysed using a custom-made tracking code (M. Perni et al., Massively parallel C. elegans tracking provides multi-dimensional fingerprints for phenotypic discovery. J. Neurosci. Methods. 306, 57-67 (2018)).” left out

[2] = tested on: N2 control (healthy) worms; test: Automated motility assay in healthy control worms; assay type: in vivo, C. elegans; conditions: same concentration range as in AD worms
Experimental: as §2
as §1, with “One experiment that is representative of the three or more measured in each series of experiments is shown, and videos were analysed using a custom-made tracking code (M. Perni et al., Massively parallel C. elegans tracking provides multi-dimensional fingerprints for phenotypic discovery. J. Neurosci. Methods. 306, 57-67 (2018)).” left out

AD worms (GMC101) [3] = conditions: GMC101, C. elegans, in vivo
Experimental: (§3) Briefly, Netoglitazone stocks (5 mM in 100% DMSO) were used at an appropriate concentration to seed 9-cm NGM plates. Plates were then placed in a laminar flow hood at room temperature (22° C.) for up to 4 hours to dry. C. elegans cultures were then transferred onto media seeded with compound as L4 stage or Day 3 for late treatments and incubated at 24° for the whole experiment. Experiments were carried out at different Netoglitazone concentrations ranging from 0.05 to 500 μM in 1% DMSO. As controls, plates seeded only with 1% DMSO were used.

[4] = tested on: Aβ1-42Neur worms (CL2355); test: Automated motility assay in Aβ1-42Neur worms; assay type: in vivo, C. elegans; conditions: vs untreated worms
Experimental: as §3
as §1, with “One experiment that is representative of the three or more measured in each series of experiments is shown, and videos were analysed using a custom-made tracking code (M. Perni et al., Massively parallel C. elegans tracking provides multi-dimensional fingerprints for phenotypic discovery. J. Neurosci. Methods. 306, 57-67 (2018)).” left out

[5] = administered at D3, read at D5 of adulthood

T1 sequence (P05067 671-713): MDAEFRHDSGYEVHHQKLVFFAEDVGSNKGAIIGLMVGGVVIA

O=C1NC(=O)C(Cc2ccc3cc(OCc4ccccc4F)ccc3c2)S1 (stereo not shown) [Netoglitazone]
Delay of Aβ42 aggregation kinetics in 66% human CSF (Aβ42): significantly delayed the aggregation kinetics in a concentration-dependent manner
Inhibition of Aβ40 aggregation (Aβ40): able to inhibit Aβ40 aggregation similarly to the 42-residue isoform
Motility of AD worms after late administration (AD worms (GMC101) [1]; [5]): increase of the worm's mobility; also recorded: improves motility
Survival rate of AD worms after late administration (AD worms (GMC101) [1]; [5]): increase of the worm's mobility and survival rate; also recorded: improves motility (i) and survival rates
Recovery of dysfunctional phenotype / mobility of AD worms (AD worms (GMC101) [1]; administered at L4, 0.05-10 μM): dose dependent and statistically significant recovery in the dysfunctional phenotype
Concentration range of best/maximum protective effect on mobility (AD worms (GMC101) [1]; administered at L4, D3 of adulthood): 0.5 to 5 µM
Effect on mobility of PD worms (PD worms (NL5901)): negligible compared to the observed effect in AD worms
Effect on mobility of healthy worms [2]: negligible compared to the observed effect in AD worms
Maximum tolerable dose in AD worms (AD worms (GMC101) [3]): less than 50 μM
Motility of Aβ1-42Neur worms [4]: significantly improves the (A) chemotaxis index and (B) motility
